Data on 19 molecules can be found in ChEMBL document CHEMBL5365430, “Structure-Activity Relationship of Truncated 2,8-Disubstituted-Adenosine Derivatives as Dual A2A/A3 Adenosine Receptor Antagonists and Their Cancer Immunotherapeutic Activity” (J Med Chem, 2023).

Structures are written as SMILES.

Holding throughout (type): cell membranes
One test has as its target T1, Adenosine receptor A1 (Homo sapiens, UniProt P30542).
T1 sequence (P30542 whole entry): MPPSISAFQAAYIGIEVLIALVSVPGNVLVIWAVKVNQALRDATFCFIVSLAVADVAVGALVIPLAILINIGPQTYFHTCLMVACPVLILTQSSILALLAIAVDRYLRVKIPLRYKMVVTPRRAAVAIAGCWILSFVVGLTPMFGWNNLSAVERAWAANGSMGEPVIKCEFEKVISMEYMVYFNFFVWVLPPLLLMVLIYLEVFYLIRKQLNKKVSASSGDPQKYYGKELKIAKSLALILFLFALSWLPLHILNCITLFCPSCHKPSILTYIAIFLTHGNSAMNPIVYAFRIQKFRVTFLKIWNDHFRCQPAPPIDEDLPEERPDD
Briefly: Displacement of R-PIA from human A1AR expressed in CHO cell membrane assessed as inhibition constant incubated for 60 mins by liquid scintillation counter analysis.

In another test the target is Adenosine receptor A2a (Homo sapiens, UniProt P29274). The test is described as follows: Displacement of […] from recombinant human A2AAR expressed in HEK293 cell membrane assessed as inhibition constant incubated for 60 mins by liquid scintillation counter analysis.
Adenosine receptor A2a, sequence (P29274 whole entry): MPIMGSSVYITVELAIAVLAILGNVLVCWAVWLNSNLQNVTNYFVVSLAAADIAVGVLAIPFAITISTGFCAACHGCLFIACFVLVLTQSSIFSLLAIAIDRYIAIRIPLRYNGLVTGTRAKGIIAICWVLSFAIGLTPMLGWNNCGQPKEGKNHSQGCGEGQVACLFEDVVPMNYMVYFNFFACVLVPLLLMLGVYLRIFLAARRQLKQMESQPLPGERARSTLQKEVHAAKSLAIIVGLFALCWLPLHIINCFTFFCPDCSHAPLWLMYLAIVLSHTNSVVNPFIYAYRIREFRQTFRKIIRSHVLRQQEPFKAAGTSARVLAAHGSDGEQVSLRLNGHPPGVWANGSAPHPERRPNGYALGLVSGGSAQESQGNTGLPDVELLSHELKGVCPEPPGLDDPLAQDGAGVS
Test [1] deals with T2, Adenosine receptor A2b (Homo sapiens) (UniProt P29275).
T2 sequence (whole entry): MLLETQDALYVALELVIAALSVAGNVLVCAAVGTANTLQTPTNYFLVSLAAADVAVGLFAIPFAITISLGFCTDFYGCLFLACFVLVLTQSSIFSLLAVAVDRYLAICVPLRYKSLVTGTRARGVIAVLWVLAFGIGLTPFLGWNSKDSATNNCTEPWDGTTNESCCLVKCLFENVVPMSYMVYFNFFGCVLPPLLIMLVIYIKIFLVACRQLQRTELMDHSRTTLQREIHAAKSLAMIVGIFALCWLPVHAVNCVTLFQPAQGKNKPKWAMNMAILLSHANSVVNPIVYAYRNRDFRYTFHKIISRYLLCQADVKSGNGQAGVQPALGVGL
The test is described as follows: Displacement of DPCPX from recombinant human A2BAR expressed in HEK293 cell membrane at 10 uM incubated for 30 mins by beta scintillation counter analysis relative to control.

A further test deals with T3, Adenosine receptor A3 (Homo sapiens, UniProt P0DMS8).
T3 sequence (P0DMS8 whole entry): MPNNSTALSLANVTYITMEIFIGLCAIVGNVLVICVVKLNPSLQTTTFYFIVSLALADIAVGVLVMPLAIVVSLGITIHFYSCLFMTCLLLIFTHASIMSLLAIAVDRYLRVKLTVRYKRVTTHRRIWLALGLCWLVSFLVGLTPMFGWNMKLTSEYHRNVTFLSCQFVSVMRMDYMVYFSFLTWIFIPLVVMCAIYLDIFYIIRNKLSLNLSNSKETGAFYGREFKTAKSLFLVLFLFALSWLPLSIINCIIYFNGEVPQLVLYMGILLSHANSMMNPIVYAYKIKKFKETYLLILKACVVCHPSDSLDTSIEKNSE
Briefly: Displacement of I-AB-MEC from human A3AR expressed in CHO cell membrane assessed as inhibition constant incubated for 60 mins by gamma counter analysis.

The target of a further test is T4, Adenosine receptor A2b (Homo sapiens, UniProt P29275).
T4 sequence (P29275 whole entry): T2 sequence (whole entry)
Briefly: Displacement of DPCPX from recombinant human A2BAR expressed in HEK293 cell membrane assessed as inhibition constant incubated for 30 mins by beta scintillation counter analysis.

Broadly, the Ki is the equilibrium dissociation constant of an inhibitor or competing ligand from its target. In the case of `CCCCC#Cc1nc(NCc2cccc(I)c2)c2nc(-c3cccs3)n([C@@H]3OC[C@@H](O)[C@H]3O)c2n1`, the Ki on Adenosine receptor A1 amounted to 2580 nM; on Adenosine receptor A2a, 513 nM; on Adenosine receptor A3, 8.9 nM. In addition, the Activity in test [1] came out at 2%.
Regarding `Nc1nc(Cl)nc2c1nc(-c1ccco1)n2[C@@H]1SC[C@@H](O)[C@H]1O`, the Ki at Adenosine receptor A1 amounted to 3890 nM; at Adenosine receptor A2a, 140 nM; at Adenosine receptor A3, 855 nM. Moreover, in test [1], the Activity is 53%.
Turning to `CNc1nc(Cl)nc2c1nc(-c1ccco1)n2[C@@H]1SC[C@@H](O)[C@H]1O`, the results for the inhibition constant Ki at Adenosine receptor A2a and on Adenosine receptor A3 were 752 nM and 94.6 nM, respectively. In addition, the Activity in test [1] is 46%.
`CCCCC#Cc1nc(NC)c2nc(-c3cccs3)n([C@@H]3OC[C@@H](O)[C@H]3O)c2n1`: the Ki at Adenosine receptor A1 is 2310 nM; on Adenosine receptor A2a, 126 nM; at Adenosine receptor A3, 2.9 nM. Also, the Activity in test [1] is 52%.
As for `Nc1nc(NCCc2ccc(O)cc2)nc2c1nc(-c1ccco1)n2[C@@H]1SC[C@@H](O)[C@H]1O`, the inhibition constant Ki at Adenosine receptor A2a came out at 112 nM; at Adenosine receptor A2b, 227 nM; at Adenosine receptor A3, 1650 nM.
`O[C@@H]1[C@H](O)CS[C@H]1n1c(-c2ccco2)nc2c(NCc3cccc(I)c3)nc(Cl)nc21`: the Ki came to 4900 nM on Adenosine receptor A1, 336 nM on Adenosine receptor A2a and 89.7 nM on Adenosine receptor A3. For the same molecule, the Activity in test [1] came out at 51%.
With `O[C@@H]1[C@H](O)CS[C@H]1n1c(-c2cccs2)nc2c(NCc3cccc(I)c3)nc(Cl)nc21`, the values for the Ki on Adenosine receptor A2a and at Adenosine receptor A3 were 720 nM and 137 nM, respectively. For the same molecule, the Activity in test [1] was found to be 17%.
The matching figures for `CNc1nc(Cl)nc2c1nc(-c1cccs1)n2[C@@H]1SC[C@@H](O)[C@H]1O`: 955 nM, 138 nM and 17%.
In the case of `CCCCC#Cc1nc(NC)c2nc(-c3ccco3)n([C@@H]3SC[C@@H](O)[C@H]3O)c2n1`, in test [1], the Activity turned out to be 41%.
Turning to `CCCCC#Cc1nc(NCc2cccc(I)c2)c2nc(-c3ccco3)n([C@@H]3OC[C@@H](O)[C@H]3O)c2n1`, the Ki was found to be 579 nM at Adenosine receptor A2a and 199 nM on Adenosine receptor A3. For the same molecule, the Activity in test [1] stood at 4%.
As to `CCCCC#Cc1nc(N)c2nc(-c3cccs3)n([C@@H]3SC[C@@H](O)[C@H]3O)c2n1`, the Activity in test [1] worked out at 27%.
Take `Nc1nc(Cl)nc2c1nc(-c1cccs1)n2[C@@H]1SC[C@@H](O)[C@H]1O`: the Ki on Adenosine receptor A1 worked out at 1980 nM; at Adenosine receptor A2a, 459 nM; on Adenosine receptor A3, 294 nM. Further, in test [1], the Activity came to 62%.
As to `CCCCC#Cc1nc(NC)c2nc(-c3ccco3)n([C@@H]3OC[C@@H](O)[C@H]3O)c2n1`, the Ki at Adenosine receptor A1 amounted to 3030 nM; at Adenosine receptor A2a it was 50 nM; on Adenosine receptor A3, 2.9 nM. The Activity in test [1] was 76%.
In the case of `CNc1nc(NCCc2ccc(O)cc2)nc2c1nc(-c1cccs1)n2[C@@H]1SC[C@@H](O)[C@H]1O`, the Ki at Adenosine receptor A2a was 917 nM; on Adenosine receptor A2b, 579 nM; at Adenosine receptor A3, 106 nM.
As for `CNc1nc(NCCc2ccc(O)cc2)nc2c1nc(-c1ccco1)n2[C@@H]1SC[C@@H](O)[C@H]1O`, the Ki was 5330 nM at Adenosine receptor A1, 468 nM on Adenosine receptor A2a, 713 nM at Adenosine receptor A2b and 445 nM at Adenosine receptor A3.
Take `CCCCC#Cc1nc(NCc2cccc(I)c2)c2nc(-c3cccs3)n([C@@H]3SC[C@@H](O)[C@H]3O)c2n1`: the Activity in test [1] amounted to 3%.
The same measure, in the same setting: the result for `CCCCC#Cc1nc(NCc2cccc(I)c2)c2nc(-c3ccco3)n([C@@H]3SC[C@@H](O)[C@H]3O)c2n1` reads 3%; that for `CCCCC#Cc1nc(NC)c2nc(-c3cccs3)n([C@@H]3SC[C@@H](O)[C@H]3O)c2n1`, 11%.
For `Nc1nc(NCCc2ccc(O)cc2)nc2c1nc(-c1cccs1)n2[C@@H]1SC[C@@H](O)[C@H]1O`, the Ki on Adenosine receptor A1 turned out to be 8050 nM; at Adenosine receptor A2a, 946 nM; at Adenosine receptor A2b, 608 nM; at Adenosine receptor A3, 3010 nM.
